In BindingDB's records for PubMed 35033884 (Indian Institute of Technology (B.H.U.), 2022):

Test: Inhibition of PDK1 (unknown origin)
For `CN(C)CCNC(=O)c1cccc(-c2c[nH]c(/C=C3\C(=O)Nc4ccc(NC(N)=O)cc43)c2)c1` [3-(5-{[(3Z)-5-(carbamoylamino)-2-oxo-2,3-dihydro-1H-indol-3-ylidene]methyl}-1H-pyrrol-3-yl)-N-[2-(dimethylamino)ethyl]benzamide], the IC50 was 4 nM.
In the case of `NC(=O)Nc1ccc2c(c1)/C(=C/c1cc(-c3ccccn3)c[nH]1)C(=O)N2`, the IC50 is reported as 8 nM.
Work on `NC(=O)Nc1ccc2c(c1)/C(=C/c1ccc[nH]1)C(=O)N2` [indolinone based inhibitor, 3l] yielded an IC50 of 20 nM.
For `C/C(=C1/C(=O)Nc2ccc(NC(N)=O)cc21)c1cc(CNC(=O)C2CCNCC2)c[nH]1` [N-[(5-{1-[(3Z)-5-(carbamoylamino)-2-oxo-2,3-dihydro-1H-indol-3-ylidene]ethyl}-1H-pyrrol-3-yl)methyl]piperidine-4-carboxamide], the IC50 was 6 nM.
